Experimental findings from PMC3914206 are described below.

For this assay, the target named is T1, panel of 442 kinases (Homo sapiens, UniProt P36888).
T1 construct: purchased KINOMEscan
T1 sequence (P36888 27-993): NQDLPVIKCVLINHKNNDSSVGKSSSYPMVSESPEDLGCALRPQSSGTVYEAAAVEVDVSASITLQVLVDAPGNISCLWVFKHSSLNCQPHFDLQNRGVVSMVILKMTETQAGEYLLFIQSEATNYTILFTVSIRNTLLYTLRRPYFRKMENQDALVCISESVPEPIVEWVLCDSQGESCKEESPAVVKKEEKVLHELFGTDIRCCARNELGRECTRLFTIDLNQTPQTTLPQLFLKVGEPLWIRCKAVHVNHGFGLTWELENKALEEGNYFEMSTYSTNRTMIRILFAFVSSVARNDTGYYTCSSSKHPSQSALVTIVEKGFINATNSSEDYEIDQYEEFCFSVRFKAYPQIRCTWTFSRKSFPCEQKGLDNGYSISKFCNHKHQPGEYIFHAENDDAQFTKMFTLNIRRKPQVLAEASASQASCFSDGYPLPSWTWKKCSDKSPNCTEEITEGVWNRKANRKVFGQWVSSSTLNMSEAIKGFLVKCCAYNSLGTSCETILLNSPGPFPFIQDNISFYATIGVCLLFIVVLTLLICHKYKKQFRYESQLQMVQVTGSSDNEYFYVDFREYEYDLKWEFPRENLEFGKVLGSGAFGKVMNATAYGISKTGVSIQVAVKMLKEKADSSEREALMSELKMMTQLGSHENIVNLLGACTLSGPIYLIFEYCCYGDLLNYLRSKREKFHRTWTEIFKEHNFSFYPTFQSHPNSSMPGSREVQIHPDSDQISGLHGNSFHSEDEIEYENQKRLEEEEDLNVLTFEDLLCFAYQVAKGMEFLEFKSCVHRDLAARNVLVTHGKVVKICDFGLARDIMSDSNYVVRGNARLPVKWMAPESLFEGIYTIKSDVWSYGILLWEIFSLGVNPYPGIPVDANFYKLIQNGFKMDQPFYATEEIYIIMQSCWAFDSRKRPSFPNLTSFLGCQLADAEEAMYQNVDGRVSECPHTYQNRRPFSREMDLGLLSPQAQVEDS
In kind it is binding. The settings on record: Compound Concentration 10 µM. The text has this: We assessed the selectivity of members of this scaffold using the KINOMEscan methodology across a near comprehensive panel of 442 kinases [[18,27]].
As for `CCOc1cc(C(=O)N2CCC(N3CCN(C)CC3)CC2)ccc1Nc1ncc2c(n1)N(C1CCCC1)c1ccccc1C(=O)N2C` [Compound 26], the “KINOMEscan: FLT3” value is 100.
Consider `COc1cc(C(=O)N2CCC(N3CCN(C)CC3)CC2)ccc1Nc1ncc2c(n1)N(C)c1ccccc1C(=O)N2C` [15 (LRRK2-IN-1)], for which the “KINOMEscan: FLT3” value amounted to 100.
Take `COc1cc(C(=O)N2CCC(N3CCN(C)CC3)CC2)ccc1Nc1ncc2c(n1)N(C1CCCC1)c1ccccc1C(=O)N2C` [Compound 25, 11-cyclopentyl-2-((2-methoxy-4-(4-(4-methylpiperazin-1-yl)piperidine-1-carbonyl)phenyl)amino)-5-methyl-5H-benzo[e]pyrimido[5,4-b][1,4]diazepin-6(11H)-one]: the “KINOMEscan: FLT3” value was 100.
